Structures can show the parent of a compound that is named as a salt.
Experiments:
[1] = Diameter and PDI from DLS measurements of mRNA nanoparticles with lipid amines; type: physicochemical
How it was run: (§1)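 DLS gave size and PDI, and Ribogreen gave encapsulation, for luciferase- or CFTR-mRNA nanoparticles (N:P 4.93). Particles came from IL1/DSPC/cholesterol/PEG-DMG-2K mixed at pH 4, mRNA-loaded, neutralized with TRIS pH 8.12, and then treated with lipid amine SA50 in pH 7.5 buffer.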

[2] = Encapsulation of mRNA nanoparticles with lipid amines using Ribogreen assay; type: physicochemical
How it was run: as §1

HeLa cells [3] = experiment: Luciferase Protein Expression Assay in HeLa Cells; type: cell-based, Human; conditions: LNPs encapsulating Luciferase mRNA, 25 ng per well, N=4 wells; 5 h serum-free then 24 h; ONE-Glo
How it was run: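 Luminescence output, average RLU across N=4 wells, was measured with ONE-Glo after cell lysis. Before that, HeLa cells were exposed to 25 ng/well luciferase-mRNA nanoparticles (PBS control) for 5 h serum-free, then cultured overnight (24 h) in complete MEM.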

HeLa cells [4] = experiment: CFTR Protein Expression Assay in HeLa Cells; type: cell-based, Human; conditions: LNPs encapsulating CFTR mRNA, N=4 wells; 5 h serum-free then 24 h; immunofluorescence vs PBS control
How it was run: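 Readout is fold-change in per-cell CFTR immunofluorescence intensity (488 nm, confocal imaging) relative to PBS-treated cells, from 4 replicate wells. LNPs encapsulating CFTR mRNA were applied serum-free for 5 h, followed by 24 h in complete medium before PFA fixation.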

[5] = CFTR mRNA nanoparticle with lipid amine
[6] = Luciferase mRNA nanoparticle modified with lipid amine

| Structure (SMILES) | Diameter (nm) [1, 5] | PDI [1, 5] | Diameter (nm) [1, 6] | PDI [1, 6] | % Encapsulation (Ribogreen) [2, 5] | % Encapsulation (Ribogreen) [2, 6] | Average Relative Light Units ± Standard Deviation (HeLa cells [3]) | Average fold-change in CFTR signal intensity per cell compared to buffer control ± standard deviation (HeLa cells [4]) |
| --- | --- | --- | --- | --- | --- | --- | --- | --- |
| CC[C@H](CC[C@@H](C)[C@H]1CC[C@H]2[C@@H]3CC=C4C[C@@H](OC(=O)CN(CCCN)CCCCNCCCN)CC[C@]4(C)[C@H]3CC[C@]12C)C(C)C [SA119, (3S,8S,9S,10R,13R,14S,17R)-17-((2R,5R)-5-ethyl-6-methylheptan-2-yl)-10,13-dimethyl-2,3,4,7,8,9,10,11,12,13,14,15,16,17-tetradecahydro-1H-cyclopenta[a]phenanthren-3-yl N-(3-aminopropyl)-N-(4-((3-aminopropyl)amino)butyl)glycinate tetrahydrochloride] | 88.3 nm | 0.15 | 78 nm | 0.18 | 98.9% | 99.4% | 18979.6 ± 7864.8 Relative Light Units | 5.7 ± 1.0 fold-change |
| CC[C@H](CC[C@@H](C)[C@H]1CC[C@H]2[C@@H]3CC=C4C[C@@H](OC(=O)N(CCCN)CCCCN)CC[C@]4(C)[C@H]3CC[C@]12C)C(C)C [SA120, (3S,8S,9S,10R,13R,14S,17R)-17-((2R,5R)-5-Ethyl-6-methylheptan-2-yl)-10,13-dimethyl-2,3,4,7,8,9,10,11,12,13,14,15,16,17-tetradecahydro-1H-cyclopenta[a]phenanthren-3-yl (4-aminobutyl)(3-aminopropyl)carbamate dihydrochloride] | 83.6 nm | 0.14 | 76 nm | 0.28 | 97.5% | 99.1% | 34695.5 ± 9492.2 Relative Light Units | 16.8 ± 1.1 fold-change |
| CC(C)CCC[C@@H](C)[C@H]1CC[C@H]2[C@@H]3CC=C4C[C@@H](OC(=O)CN(CCCCCCCCN)C(=O)CCCCN)CC[C@]4(C)[C@H]3CC[C@]12C [SA122, (3S,8S,9S,10R,13R,14S,17R)-10,13-Dimethyl-17-((R)-6-methylheptan-2-yl)-2,3,4,7,8,9,10,11,12,13,14,15,16,17-tetradecahydro-1H-cyclopenta[a]phenanthren-3-yl N-(8-aminooctyl)-N-(5-aminopentanoyl)glycinate dihydrochloride] | 83.5 nm | 0.13 | 75 nm | 0.15 | 98.6% | 99.4% | 29605.6 ± 6326.9 Relative Light Units | 14.8 ± 1.1 fold-change |
| CC(C)CCC[C@@H](C)[C@H]1CC[C@H]2[C@@H]3CC=C4C[C@@H](OC(=O)CN(CCCCCCCCN)C(=O)CCCCCN)CC[C@]4(C)[C@H]3CC[C@]12C [SA123, (3S,8S,9S,10R,13R,14S,17R)-10,13-dimethyl-17-((R)-6-methylheptan-2-yl)-2,3,4,7,8,9,10,11,12,13,14,15,16,17-tetradecahydro-1H-cyclopenta[a]phenanthren-3-yl N-(6-aminohexanoyl)-N-(8-aminooctyl)glycinate dihydrochloride] | 83.2 nm | 0.12 | 73 nm | 0.14 | 99.0% | 99.5% | 28520.5 ± 6429.4 Relative Light Units | 14.7 ± 1.0 fold-change |
| CC(C)CCC[C@@H](C)[C@H]1CC[C@H]2[C@@H]3CC=C4C[C@@H](OC(=O)N(CCCCNCCC5(N)CC5)CCC5(N)CC5)CC[C@]4(C)[C@H]3CC[C@]12C [SA124, (3S,8S,9S,10R,13R,14S,17R)-10,13-dimethyl-17-((R)-6-methylheptan-2-yl)-2,3,4,7,8,9,10,11,12,13,14,15,16,17-tetradecahydro-1H-cyclopenta[a]phenanthren-3-yl (2-(1-aminocyclopropyl)ethyl)(4-((2-(1-aminocyclopropyl)ethyl)amino)butyl)carbamate trihydrochloride] | 72.0 nm | 0.10 | 74 nm | 0.14 | 98.3% | 99.8% | 45805.9 ± 5630.6 Relative Light Units | 15.0 ± 1.2 fold-change |
| CC(C)CCC[C@@H](C)[C@H]1CC[C@H]2[C@@H]3CC=C4C[C@@H](OC(=O)CCCC(=O)N(CCCCNCCC(C)N)CCC(C)N)CC[C@]4(C)[C@H]3CC[C@]12C.Cl.Cl.Cl (stereo partly drawn) [SA125, (3S,8S,9S,10R,13R,14S,17R)-10,13-dimethyl-17-((R)-6-methylheptan-2-yl)-2,3,4,7,8,9,10,11,12,13,14,15,16,17-tetradecahydro-1H-cyclopenta[a]phenanthren-3-yl 5-((3-aminobutyl)(4-((3-aminobutyl)amino)butyl)amino)-5-oxopentanoate trihydrochloride] | 75.0 nm | 0.15 | 77 nm | 0.19 | 99.0% | 99.7% | 15625.8 ± 3399.4 Relative Light Units | 14.2 ± 0.9 fold-change |
| CC(C)CCC[C@@H](C)[C@H]1CC[C@H]2[C@@H]3CC=C4C[C@@H](OC(=O)N(CCCCNC(C)CC(C)N)C(C)CC(C)N)CC[C@]4(C)[C@H]3CC[C@]12C.Cl.Cl.Cl (stereo partly drawn) [SA126, (3S,8S,9S,10R,13R,14S,17R)-10,13-dimethyl-17-((R)-6-methylheptan-2-yl)-2,3,4,7,8,9,10,11,12,13,14,15,16,17-tetradecahydro-1H-cyclopenta[a]phenanthren-3-yl (4-aminopentan-2-yl)(4-((4-aminopentan-2-yl)amino)butyl)carbamate trihydrochloride] | 79.3 nm | 0.15 | 75 nm | 0.18 | 99.4% | 99.7% | 31706.7 ± 7386.3 Relative Light Units | 18.2 ± 2.0 fold-change |
| CCC(N)CCNCCCCN(CCC(N)CC)C(=O)O[C@H]1CC[C@@]2(C)C(=CC[C@H]3[C@@H]4CC[C@H]([C@H](C)CCCC(C)C)[C@@]4(C)CC[C@@H]32)C1.Cl.Cl.Cl (stereo partly drawn) [SA127, (3S,8S,9S,10R,13R,14S,17R)-10,13-dimethyl-17-((R)-6-methylheptan-2-yl)-2,3,4,7,8,9,10,11,12,13,14,15,16,17-tetradecahydro-1H-cyclopenta[a]phenanthren-3-yl (3-aminopentyl)(4-((3-aminopentyl)amino)butyl)carbamate trihydrochloride] | 74.1 nm | 0.12 | 74 nm | 0.17 | 99.5% | 99.7% | 41246.9 ± 5672.4 Relative Light Units | 20.1 ± 1.9 fold-change |

Source: patent US20260109732A1, “LIPID AMINES” (ModernaTX, Inc., priority 2021, published 2026)
